# Where no end group is shown, it is not given here. [ ]: non-standard residue; d: D form. Arg(Me2a) = CN(C)C(=N)NCCC[C@H](N)C(=O)O; pS = N[C@@H](COP(=O)(O)O)C(=O)O
# Assays:
# Test in all cases: Histone peptide microarray
# Format in all cases: binding, human
# AIRE (PP) = conditions: AIRE (PP), GST-tagged; arrays performed twice, n of 4
# Excerpt: (§1) To more comprehensively define the histone interactions of the 31 PHD readers identified from the domain microarray analyses, we probed each on an alternate microarray platform containing a library of 293 synthetic histone peptides with single or combinatorial PTMs (Additional file 2: Figure S4 and Additional file 3: Table S2).
# (§2) The 31 GST-tagged PHD readers identified in the PHD finger domain array were expressed and purified as previously. Histone peptide arrays and peptide pulldown assays were conducted as recently described (specifically, the optimized protocol from Petell et al. for the former).
# (§3) Supplementary file 13072_2020_328_MOESM3_ESM.xlsx: Additional file 3: Table S2. […] Excel Tab Peptide List is a compiled list of the entire 293 histone peptide library with amino acid sequence ranges. […] Each number corresponds to the peptide number designated in Peptide List. Excel Tab Average Signals is a compiled set of binding data: chromatin reader at 0.5 μM vs. entire 293 peptide library. Data is presented as the average and standard deviation of 4 replicates. The average signals are colored to indicate signal intensity with green being strong and white being weak/low. […] Key: red= stronger relative binding; blue = weaker relative binding. Excel Tab Array info summary is a table summarizing the domains, sequence coverage, array signal range, and noise for each of the GST-tagged readers assayed on the peptide microarrays.
# BAZ2B = conditions: BAZ2B, GST-tagged; arrays performed twice, n of 4
# Excerpt: as §1, §2, §3
# BPTF (PB) = conditions: BPTF (PB), GST-tagged; arrays performed twice, n of 4
# Excerpt: as §1, §2, §3
# CHD4 (PPCC) = conditions: CHD4 (PPCC), GST-tagged; arrays performed twice, n of 4
# Excerpt: as §1, §2, §3
# CHD5 (PCC) = conditions: CHD5 (PCC), GST-tagged; arrays performed twice, n of 4
# Excerpt: as §1, §2, §3
# CHD5 (PPCC) = conditions: CHD5 (PPCC), GST-tagged; arrays performed twice, n of 4
# Excerpt: as §1, §2, §3
# DIDO1 = conditions: DIDO1, GST-tagged; arrays performed twice, n of 4
# Excerpt: as §1, §2, §3
# DPF2 (PPC2W2) = conditions: DPF2 (PPC2W2), GST-tagged; arrays performed twice, n of 4
# Excerpt: as §1, §2, §3
# ING1 = conditions: ING1, GST-tagged; arrays performed twice, n of 4
# Excerpt: as §1, §2, §3
# ING2 = conditions: ING2, GST-tagged; arrays performed twice, n of 4
# Excerpt: as §1, §2, §3
# ING3 = conditions: ING3, GST-tagged; arrays performed twice, n of 4
# Excerpt: as §1, §2, §3
# ING4 = conditions: ING4, GST-tagged; arrays performed twice, n of 4
# Excerpt: as §1, §2, §3
# ING5 = conditions: ING5, GST-tagged; arrays performed twice, n of 4
# Excerpt: as §1, §2, §3
# KDM4C (TTP) = conditions: KDM4C (TTP), GST-tagged; arrays performed twice, n of 4
# Excerpt: as §1, §2, §3
# KDM5A (1) = conditions: KDM5A (1), GST-tagged; arrays performed twice, n of 4
# Excerpt: as §1, §2, §3
# KDM5A (3) = conditions: KDM5A (3), GST-tagged; arrays performed twice, n of 4
# Excerpt: as §1, §2, §3
# KDM5B (1) = conditions: KDM5B (1), GST-tagged; arrays performed twice, n of 4
# Excerpt: as §1, §2, §3
# KDM5B (3) = conditions: KDM5B (3), GST-tagged; arrays performed twice, n of 4
# Excerpt: as §1, §2, §3
# KDM7A = conditions: KDM7A, GST-tagged; arrays performed twice, n of 4
# Excerpt: as §1, §2, §3
# MLL5 = conditions: MLL5, GST-tagged; arrays performed twice, n of 4
# Excerpt: as §1, §2, §3
# MORC3 (CW) = conditions: MORC3 (CW), GST-tagged; arrays performed twice, n of 4
# Excerpt: as §1, §2, §3
# PHF13 = conditions: PHF13, GST-tagged; arrays performed twice, n of 4
# Excerpt: as §1, §2, §3
# PHF21A = conditions: PHF21A, GST-tagged; arrays performed twice, n of 4
# Excerpt: as §1, §2, §3
# PHF23 = conditions: PHF23, GST-tagged; arrays performed twice, n of 4
# Excerpt: as §1, §2, §3
# PHF2 = conditions: PHF2, GST-tagged; arrays performed twice, n of 4
# Excerpt: as §1, §2, §3
# PHF8 = conditions: PHF8, GST-tagged; arrays performed twice, n of 4
# Excerpt: as §1, §2, §3
# PHRF1 (RP) = conditions: PHRF1 (RP), GST-tagged; arrays performed twice, n of 4
# Excerpt: as §1, §2, §3
# RAG2 = conditions: RAG2, GST-tagged; arrays performed twice, n of 4
# Excerpt: as §1, §2, §3
# SP140L = conditions: SP140L, GST-tagged; arrays performed twice, n of 4
# Excerpt: as §1, §2, §3
# TAF3 = conditions: TAF3, GST-tagged; arrays performed twice, n of 4
# Excerpt: as §1, §2, §3
# TRIM66 (PB) = conditions: TRIM66 (PB), GST-tagged; arrays performed twice, n of 4
# Excerpt: as §1, §2, §3
Substance,Array Heatmap value (peptide array binding signal) (AIRE (PP)),Array Heatmap value (peptide array binding signal) (BAZ2B),Array Heatmap value (peptide array binding signal) (BPTF (PB)),Array Heatmap value (peptide array binding signal) (CHD4 (PPCC)),Array Heatmap value (peptide array binding signal) (CHD5 (PCC)),Array Heatmap value (peptide array binding signal) (CHD5 (PPCC)),Array Heatmap value (peptide array binding signal) (DIDO1),Array Heatmap value (peptide array binding signal) (DPF2 (PPC2W2)),Array Heatmap value (peptide array binding signal) (ING1),Array Heatmap value (peptide array binding signal) (ING2),Array Heatmap value (peptide array binding signal) (ING3),Array Heatmap value (peptide array binding signal) (ING4),Array Heatmap value (peptide array binding signal) (ING5),Array Heatmap value (peptide array binding signal) (KDM4C (TTP)),Array Heatmap value (peptide array binding signal) (KDM5A (1)),Array Heatmap value (peptide array binding signal) (KDM5A (3)),Array Heatmap value (peptide array binding signal) (KDM5B (1)),Array Heatmap value (peptide array binding signal) (KDM5B (3)),Array Heatmap value (peptide array binding signal) (KDM7A),Array Heatmap value (peptide array binding signal) (MLL5),other results
"H2AS1p + K5ac: H2A 1-17 ([pS]GRGK(Ac)QGGKARAKAKTR; UniProt P0C0S8 2-18, looked up, fragment)",0.2932,0.3559,0.2697,0.4644,0.6294,0.3972,0.6049,0.5432,0.485,0.5878,0.3526,0.3411,0.2521,0.3213,0.3412,0.4071,0.5673,0.3803,0.2299,0.4623,Array Heatmap value (peptide array binding signal) (MORC3 (CW)): 0.3086; Array Heatmap value (peptide array binding signal) (PHF13): 0.4493; Array Heatmap value (peptide array binding signal) (PHF21A): 0.3599; Array Heatmap value (peptide array binding signal) (PHF23): 0.4819; Array Heatmap value (peptide array binding signal) (PHF2): 0.5004; Array Heatmap value (peptide array binding signal) (PHF8): 0.2793; Array Heatmap value (peptide array binding signal) (PHRF1 (RP)): 0.3697; Array Heatmap value (peptide array binding signal) (RAG2): 0.2266; Array Heatmap value (peptide array binding signal) (SP140L): 0.2923; Array Heatmap value (peptide array binding signal) (TAF3): 0.2127; Array Heatmap value (peptide array binding signal) (TRIM66 (PB)): 0.4856
"H2AS1p + R3me2a + K5ac: H2A 1-17 ([pS]G[Arg(Me2a)]GK(Ac)QGGKARAKAKTR; UniProt P0C0S8 2-18, looked up, fragment)",0.4865,0.5108,0.3885,0.5877,0.8457,0.6207,0.7538,0.758,0.5672,0.6108,0.5376,0.4949,0.4136,0.5547,0.5224,0.5245,0.7084,0.5099,0.4163,0.5765,Array Heatmap value (peptide array binding signal) (MORC3 (CW)): 0.4152; Array Heatmap value (peptide array binding signal) (PHF13): 0.6406; Array Heatmap value (peptide array binding signal) (PHF21A): 0.4866; Array Heatmap value (peptide array binding signal) (PHF23): 0.5991; Array Heatmap value (peptide array binding signal) (PHF2): 0.5212; Array Heatmap value (peptide array binding signal) (PHF8): 0.3894; Array Heatmap value (peptide array binding signal) (PHRF1 (RP)): 0.5154; Array Heatmap value (peptide array binding signal) (RAG2): 0.2825; Array Heatmap value (peptide array binding signal) (SP140L): 0.3795; Array Heatmap value (peptide array binding signal) (TAF3): 0.2891; Array Heatmap value (peptide array binding signal) (TRIM66 (PB)): 0.6131
